Each structure is given as a SMILES string. Where “and” joins values, the source holds several entries; their conditions need not be identical. Equal values may be shown once.

Series [1] is described as follows: Intrinsic clearance in mouse hepatocytes. It is filed as in vitro ADME.
The test system of another series is ob/ob mice. The settings on record: male ob/ob mice, oral in chow, 8 wk.
Series [2] in a line: Parallel artificial membrane permeability assay. The settings on record: for passive permeability through artificial membrane (in words): PAMPA. For orientation: The PAMPA barrier holds no transporters, so it reflects passive diffusion.
Series [3] concerns SREBP-responsive genes in DU145 cells. Description: Real-time RT-PCR of SREBP-responsive genes in DU145 cells. Type of series: cell-based, human. On the technique in general: In qPCR the cycle at which signal appears reflects the starting amount.
A further series has as its system SREBP. Put plainly: SREBP-responsive. The settings on record: luciferase reporter assay, CHO-K1 cells. In general terms: Reporter assays use an easily measured gene product as a stand-in for the process of interest.

As to `CCCc1cc(-c2nc(-c3ccc(NS(C)(=O)=O)cc3)cs2)ccn1` [Compound 24, N-(4-(2-(2-Propylpyridin-4-yl)thiazol-4-yl)phenyl)methanesulfonamide], the “metabolic stability (in words)” value in series [1] is “moderately stable”. Moreover, the “less weight than control mice” value in the series on ob/ob mice is recorded as 8–9%. Further, in series [2], the “passive permeability through artificial membrane (in words)” value is listed as “high”. The “effect on transcription of three control genes unrelated to SREBP” value in series [3] (RPL13A, B2M, GAPDH) is given as “no significant effect”. Moreover, in series [3] (real-time RT-PCR, all nine genes), the “downregulation of transcription of nine SREBP-responsive genes” value is “at least 25%”.

In the case of `CC(=O)CC(c1ccccc1)c1c(O)c2ccccc2oc1=O` (stereo not drawn) [Warfarin, reference compound], the “Reference PAMPA Papp” value in series [2] (Warfarin 10 μM, control for membrane integrity, run alongside each compound) was 5.34 10^−6 cm/sec and 5.58 10^−6 cm/sec. Take `CCCc1cc(-c2nc(-c3ccc(NC(C)C)cc3)cs2)ccn1` [Compound 20, N-Isopropyl-4-(2-(2-propylpyridin-4-yl)thiazol-4-yl)aniline]: the “metabolic stability (in words)” value in series [1] is reported as “low metabolic stability”. Also, the “passive permeability through artificial membrane (in words)” value in series [2] was “moderate”. Take `CCCc1cc(-c2nc(-c3ccc(C)cc3)cs2)ccn1` [Compound 1, fatostatin]: the “metabolic stability (in words)” value in series [1] was “low metabolic stability”. For the molecule `CCCc1cc(-c2nc(-c3ccccc3)cs2)ccn1` [Compound 5a], the “decrease in potency relative to fatostatin” value in the series with SREBP is reported as “fourfold”. Turning to `CCCc1cc(-c2ccc(-c3ccc(C)cc3)cc2)ccn1` [Compound 15], the “activity in reporter assay (in words)” value in the series on SREBP was “large loss of activity”. As for `Cc1ccc(-c2csc(-c3ccccc3)n2)cc1` [Compound 12], the “decrease in potency relative to fatostatin” value with SREBP turned out to be 3.3 fold.

For the origin of these results see article PMC3136361 (Journal of medicinal chemistry, 2011).
